Data from ChEMBL document CHEMBL3352334, “Design, synthesis and pharmacological evaluation of 2-(thiazol-2-amino)-4-arylaminopyrimidines as potent anaplastic lymphoma kinase (ALK) inhibitors” (Eur J Med Chem, 2014).

Assays:
[1] = molecular target: T1, ALK tyrosine kinase receptor (Homo sapiens, UniProt Q9UM73); test: Inhibition of purified ALK (unknown origin) after 60 mins by ELISA kinase assay
Target sequence in this assay (Q9UM73 whole entry): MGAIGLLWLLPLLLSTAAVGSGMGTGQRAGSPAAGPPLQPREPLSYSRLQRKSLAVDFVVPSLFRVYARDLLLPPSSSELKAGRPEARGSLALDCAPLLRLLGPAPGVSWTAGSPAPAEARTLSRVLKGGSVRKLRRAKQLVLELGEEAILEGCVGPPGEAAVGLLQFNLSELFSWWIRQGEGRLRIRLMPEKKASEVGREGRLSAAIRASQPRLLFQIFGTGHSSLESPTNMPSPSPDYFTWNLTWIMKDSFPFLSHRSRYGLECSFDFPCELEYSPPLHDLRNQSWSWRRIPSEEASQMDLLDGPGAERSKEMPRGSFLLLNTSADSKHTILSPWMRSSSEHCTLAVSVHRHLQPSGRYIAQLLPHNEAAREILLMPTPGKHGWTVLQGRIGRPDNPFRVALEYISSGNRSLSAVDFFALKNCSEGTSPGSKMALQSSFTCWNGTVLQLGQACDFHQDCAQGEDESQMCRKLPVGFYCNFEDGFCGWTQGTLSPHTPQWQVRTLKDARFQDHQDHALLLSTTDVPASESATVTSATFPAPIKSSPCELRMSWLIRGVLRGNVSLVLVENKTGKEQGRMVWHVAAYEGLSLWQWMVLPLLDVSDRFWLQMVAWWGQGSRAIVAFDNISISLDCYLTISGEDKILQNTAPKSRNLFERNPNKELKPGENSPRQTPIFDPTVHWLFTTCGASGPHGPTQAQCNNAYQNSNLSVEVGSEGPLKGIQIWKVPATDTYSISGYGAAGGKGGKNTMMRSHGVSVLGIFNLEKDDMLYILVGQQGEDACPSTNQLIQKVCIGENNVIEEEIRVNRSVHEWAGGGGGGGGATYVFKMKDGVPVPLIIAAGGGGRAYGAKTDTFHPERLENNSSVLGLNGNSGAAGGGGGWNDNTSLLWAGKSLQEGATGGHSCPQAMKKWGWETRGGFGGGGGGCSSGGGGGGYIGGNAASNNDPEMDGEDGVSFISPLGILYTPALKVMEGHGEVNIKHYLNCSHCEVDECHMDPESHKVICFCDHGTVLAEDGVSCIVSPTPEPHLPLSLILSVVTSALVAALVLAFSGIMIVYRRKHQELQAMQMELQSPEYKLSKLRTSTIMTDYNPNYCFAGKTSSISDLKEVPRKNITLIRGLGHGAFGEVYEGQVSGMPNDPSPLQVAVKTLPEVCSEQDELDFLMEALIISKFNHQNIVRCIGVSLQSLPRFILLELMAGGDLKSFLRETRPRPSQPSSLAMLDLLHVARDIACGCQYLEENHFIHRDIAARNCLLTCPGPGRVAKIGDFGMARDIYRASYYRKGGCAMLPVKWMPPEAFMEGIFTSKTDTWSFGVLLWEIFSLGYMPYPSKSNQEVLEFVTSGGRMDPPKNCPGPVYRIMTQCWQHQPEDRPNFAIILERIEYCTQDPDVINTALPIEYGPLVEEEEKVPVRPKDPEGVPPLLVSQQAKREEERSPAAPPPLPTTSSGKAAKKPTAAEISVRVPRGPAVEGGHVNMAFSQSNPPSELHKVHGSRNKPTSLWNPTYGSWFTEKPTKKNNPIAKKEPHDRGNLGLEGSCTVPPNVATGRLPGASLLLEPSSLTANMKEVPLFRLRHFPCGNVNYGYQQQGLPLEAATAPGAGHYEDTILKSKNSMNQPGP

[2] = Antiproliferative activity against human SUP-M2 cells assessed as growth inhibition at 1000 nM after 72 hrs by SRB assay; assay type: functional; conditions: SUP-M2, 72 h, read-out: GI
[3] = Antiproliferative activity against human SUP-M2 cells assessed as growth inhibition at 200 nM after 72 hrs by SRB assay; assay type: functional; conditions: SUP-M2, 72 h, read-out: GI
[4] = molecular target: Fibroblast growth factor receptor 1 (Homo sapiens) (UniProt P11362); test: Inhibition of purified FGFR1 (unknown origin) at 1 uM after 60 mins by ELISA kinase assay
[5] = molecular target: Ephrin type-A receptor 2 (Homo sapiens) (UniProt P29317); test: Inhibition of purified EPH-A2 (unknown origin) at 1 uM after 60 mins by ELISA kinase assay
[6] = molecular target: Platelet-derived growth factor receptor beta (Homo sapiens) (UniProt P09619); test: Inhibition of purified PDGFRbeta (unknown origin) at 1 uM after 60 mins by ELISA kinase assay
[7] = molecular target: Fibroblast growth factor receptor 1 (Homo sapiens) (UniProt P11362); test: Inhibition of purified FGFR1 (unknown origin) at 0.1 uM after 60 mins by ELISA kinase assay
[8] = molecular target: Insulin-like growth factor 1 receptor (Homo sapiens) (UniProt P08069); test: Inhibition of purified IGF1R (unknown origin) at 0.1 uM after 60 mins by ELISA kinase assay
Insulin-like growth factor 1 receptor (Homo sapiens), sequence (P08069 31-736 limits assumed): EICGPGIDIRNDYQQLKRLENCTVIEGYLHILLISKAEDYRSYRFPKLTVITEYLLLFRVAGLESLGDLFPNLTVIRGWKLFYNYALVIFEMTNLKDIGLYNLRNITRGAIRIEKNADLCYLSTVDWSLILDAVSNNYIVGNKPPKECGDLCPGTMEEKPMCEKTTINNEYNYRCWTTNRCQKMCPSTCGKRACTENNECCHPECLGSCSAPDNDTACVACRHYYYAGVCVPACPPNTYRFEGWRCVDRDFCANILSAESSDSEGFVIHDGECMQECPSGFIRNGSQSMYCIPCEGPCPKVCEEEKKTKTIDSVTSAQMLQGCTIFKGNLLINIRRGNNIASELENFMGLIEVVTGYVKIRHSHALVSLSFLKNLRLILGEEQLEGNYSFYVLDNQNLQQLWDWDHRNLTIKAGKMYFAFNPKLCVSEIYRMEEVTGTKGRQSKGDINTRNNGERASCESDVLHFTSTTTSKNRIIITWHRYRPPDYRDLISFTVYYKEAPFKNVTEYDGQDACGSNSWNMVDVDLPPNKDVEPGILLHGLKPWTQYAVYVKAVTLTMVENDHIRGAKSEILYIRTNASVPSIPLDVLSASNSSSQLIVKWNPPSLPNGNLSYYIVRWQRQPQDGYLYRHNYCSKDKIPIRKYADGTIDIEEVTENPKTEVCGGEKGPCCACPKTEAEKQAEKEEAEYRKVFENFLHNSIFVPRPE
Insulin-like growth factor 1 receptor (Homo sapiens), sequence (P08069 741-1367 limits assumed): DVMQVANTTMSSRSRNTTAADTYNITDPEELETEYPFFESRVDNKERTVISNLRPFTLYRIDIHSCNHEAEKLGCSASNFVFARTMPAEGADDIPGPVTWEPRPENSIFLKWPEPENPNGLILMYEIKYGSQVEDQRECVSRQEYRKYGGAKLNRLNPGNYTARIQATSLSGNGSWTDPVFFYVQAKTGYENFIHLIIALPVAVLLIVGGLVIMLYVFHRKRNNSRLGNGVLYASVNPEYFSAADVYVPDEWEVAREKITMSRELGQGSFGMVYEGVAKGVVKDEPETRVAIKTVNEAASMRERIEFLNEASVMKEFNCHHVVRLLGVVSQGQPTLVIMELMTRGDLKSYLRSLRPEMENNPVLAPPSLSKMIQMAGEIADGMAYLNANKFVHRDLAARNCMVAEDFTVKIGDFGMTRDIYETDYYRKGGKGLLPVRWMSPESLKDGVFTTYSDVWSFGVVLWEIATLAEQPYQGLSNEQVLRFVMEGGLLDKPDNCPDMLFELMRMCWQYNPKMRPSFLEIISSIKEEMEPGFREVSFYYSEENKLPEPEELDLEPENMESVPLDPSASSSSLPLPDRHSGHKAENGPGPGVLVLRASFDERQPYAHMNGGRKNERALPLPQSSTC

[9] = molecular target: Platelet-derived growth factor receptor alpha (Homo sapiens) (UniProt P16234); test: Inhibition of purified PDGFRalpha (unknown origin) at 1 uM after 60 mins by ELISA kinase assay
[10] = molecular target: Tyrosine-protein kinase ABL1 (Homo sapiens) (UniProt P00519); test: Inhibition of purified Abl (unknown origin) at 1 uM after 60 mins by ELISA kinase assay
[11] = molecular target: Receptor tyrosine-protein kinase erbB-2 (Homo sapiens) (UniProt P04626); test: Inhibition of purified ErbB2 (unknown origin) at 1 uM after 60 mins by ELISA kinase assay
[12] = molecular target: T1, ALK tyrosine kinase receptor; test: Inhibition of ALK-mediated STAT3 phosphorylation in human H3122 cells; assay type: cell-based
[13] = molecular target: T1, ALK tyrosine kinase receptor; test: Inhibition of ALK-mediated AKT phosphorylation in human H3122 cells; assay type: cell-based
[14] = molecular target: T2, Hepatocyte growth factor receptor (Homo sapiens, UniProt P08581); test: Inhibition of purified c-MET (unknown origin) at 1 uM after 60 mins by ELISA kinase assay
T2 sequence (P08581 whole entry): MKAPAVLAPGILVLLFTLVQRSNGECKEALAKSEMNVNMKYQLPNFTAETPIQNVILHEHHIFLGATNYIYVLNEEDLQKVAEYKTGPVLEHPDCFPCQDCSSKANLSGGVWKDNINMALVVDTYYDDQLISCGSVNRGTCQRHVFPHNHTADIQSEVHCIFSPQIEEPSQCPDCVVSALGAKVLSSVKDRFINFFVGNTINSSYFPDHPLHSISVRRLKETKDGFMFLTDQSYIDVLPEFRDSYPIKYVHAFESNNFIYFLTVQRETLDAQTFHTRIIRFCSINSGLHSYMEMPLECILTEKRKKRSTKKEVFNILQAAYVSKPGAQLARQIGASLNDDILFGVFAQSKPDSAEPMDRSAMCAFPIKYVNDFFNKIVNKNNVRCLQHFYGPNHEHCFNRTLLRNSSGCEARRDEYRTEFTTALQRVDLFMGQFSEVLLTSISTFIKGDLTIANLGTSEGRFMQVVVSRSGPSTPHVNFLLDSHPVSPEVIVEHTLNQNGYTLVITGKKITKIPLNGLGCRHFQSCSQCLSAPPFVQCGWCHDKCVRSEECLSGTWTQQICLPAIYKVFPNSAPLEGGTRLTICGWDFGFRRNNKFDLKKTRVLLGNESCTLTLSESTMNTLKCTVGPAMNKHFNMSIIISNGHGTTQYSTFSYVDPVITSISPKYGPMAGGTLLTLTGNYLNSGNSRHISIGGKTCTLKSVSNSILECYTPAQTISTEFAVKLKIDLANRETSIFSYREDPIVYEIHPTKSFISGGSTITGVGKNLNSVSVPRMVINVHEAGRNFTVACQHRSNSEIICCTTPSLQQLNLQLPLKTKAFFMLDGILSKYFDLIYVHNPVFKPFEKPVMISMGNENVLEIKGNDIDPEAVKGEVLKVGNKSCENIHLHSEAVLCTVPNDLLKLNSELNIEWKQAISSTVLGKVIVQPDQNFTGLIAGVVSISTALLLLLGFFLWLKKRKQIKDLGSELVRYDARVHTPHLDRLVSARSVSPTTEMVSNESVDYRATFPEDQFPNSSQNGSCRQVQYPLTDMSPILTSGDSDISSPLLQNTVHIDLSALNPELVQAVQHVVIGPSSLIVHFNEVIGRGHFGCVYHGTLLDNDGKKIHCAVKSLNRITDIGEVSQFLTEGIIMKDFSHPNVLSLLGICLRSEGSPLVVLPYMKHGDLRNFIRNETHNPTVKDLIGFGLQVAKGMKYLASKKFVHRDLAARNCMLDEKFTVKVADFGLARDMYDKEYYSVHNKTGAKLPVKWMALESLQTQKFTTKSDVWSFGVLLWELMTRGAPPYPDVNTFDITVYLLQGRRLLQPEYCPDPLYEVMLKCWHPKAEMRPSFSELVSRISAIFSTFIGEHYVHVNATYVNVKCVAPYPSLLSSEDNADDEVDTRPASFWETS

[15] = molecular target: T1, ALK tyrosine kinase receptor; test: Inhibition of ALK phosphorylation in human H3122 cells; assay type: cell-based
[16] = molecular target: Epidermal growth factor receptor (Homo sapiens) (UniProt P00533); test: Inhibition of purified EGFR (unknown origin) at 1 uM after 60 mins by ELISA kinase assay
[17] = molecular target: Proto-oncogene tyrosine-protein kinase receptor Ret (Homo sapiens) (UniProt P07949); test: Inhibition of purified RET (unknown origin) at 1 uM after 60 mins by ELISA kinase assay
[18] = molecular target: Proto-oncogene tyrosine-protein kinase Src (Homo sapiens) (UniProt P12931); test: Inhibition of purified c-Src (unknown origin) at 1 uM after 60 mins by ELISA kinase assay
Proto-oncogene tyrosine-protein kinase Src (Homo sapiens), sequence (P12931 2-536 limits assumed): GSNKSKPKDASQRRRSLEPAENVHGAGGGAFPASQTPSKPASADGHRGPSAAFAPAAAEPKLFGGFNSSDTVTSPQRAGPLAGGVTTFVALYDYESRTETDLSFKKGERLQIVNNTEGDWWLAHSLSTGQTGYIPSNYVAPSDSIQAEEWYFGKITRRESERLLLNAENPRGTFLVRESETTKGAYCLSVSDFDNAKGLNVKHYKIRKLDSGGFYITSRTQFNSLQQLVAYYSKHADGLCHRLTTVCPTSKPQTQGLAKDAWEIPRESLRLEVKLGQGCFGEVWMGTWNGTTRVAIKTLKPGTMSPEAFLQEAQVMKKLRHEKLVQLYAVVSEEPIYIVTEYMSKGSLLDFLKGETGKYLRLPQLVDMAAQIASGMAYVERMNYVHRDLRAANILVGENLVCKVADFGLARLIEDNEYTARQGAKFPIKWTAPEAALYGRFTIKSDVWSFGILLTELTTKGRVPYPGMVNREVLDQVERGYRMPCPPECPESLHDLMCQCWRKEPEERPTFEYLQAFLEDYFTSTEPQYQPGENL

[19] = molecular target: ALK tyrosine kinase receptor (Homo sapiens, UniProt Q9UM73, L1196M); test: Inhibition of purified ALK L1196M mutant (unknown origin) after 60 mins by ELISA kinase assay
[20] = molecular target: Insulin-like growth factor 1 receptor (Homo sapiens) (UniProt P08069); test: Inhibition of purified IGF1R (unknown origin) at 1 uM after 60 mins by ELISA kinase assay
[21] = molecular target: Vascular endothelial growth factor receptor 2 (Homo sapiens) (UniProt P35968); test: Inhibition of purified KDR (unknown origin) at 1 uM after 60 mins by ELISA kinase assay
[22] = molecular target: Vascular endothelial growth factor receptor 2 (Homo sapiens) (UniProt P35968); test: Inhibition of purified KDR (unknown origin) at 0.1 uM after 60 mins by ELISA kinase assay
[23] = molecular target: Receptor tyrosine-protein kinase erbB-4 (Homo sapiens) (UniProt Q15303); test: Inhibition of purified ErbB4 (unknown origin) at 1 uM after 60 mins by ELISA kinase assay
[24] = molecular target: T1, ALK tyrosine kinase receptor; test: Inhibition of ALK-mediated ERK phosphorylation in human H3122 cells; assay type: cell-based
[25] = molecular target: Vascular endothelial growth factor receptor 1 (Homo sapiens) (UniProt P17948); test: Inhibition of purified Flt-1 (unknown origin) at 1 uM after 60 mins by ELISA kinase assay
[26] = molecular target: Receptor-type tyrosine-protein kinase FLT3 (Homo sapiens) (UniProt P36888); test: Inhibition of purified Flt-3 (unknown origin) at 1 uM after 60 mins by ELISA kinase assay
[27] = molecular target: T2, Hepatocyte growth factor receptor; test: Inhibition of purified c-MET (unknown origin) after 60 mins by ELISA kinase assay
[28] = molecular target: T1, ALK tyrosine kinase receptor; conditions: 1 uM
Description: Inhibition of purified ALK (unknown origin) at 1 uM after 60 mins by ELISA kinase assay

CC(C)S(=O)(=O)c1ccccc1Nc1nc(Nc2nc3c(s2)CN(C)CC3)ncc1Cl
IC50 [1]: > 1000 nM

CC(C)S(=O)(=O)c1ccccc1Nc1nc(Nc2nc(C(=O)O)cs2)ncc1Cl
IC50 [1]: > 1000 nM

CC(C)S(=O)(=O)c1ccccc1Nc1nc(Nc2nc3c(s2)CCN(C(=O)CO)CC3)ncc1Cl
inhibition of growth at 1 µM [2]: 80.7% | inhibition of growth at 0.2 µM [3]: 3.7%

CC(C)S(=O)(=O)c1ccccc1Nc1nc(Nc2ncc(C(=O)N3C[C@H]4CN(C)C[C@H]4C3)s2)ncc1Cl
IC50 [1]: > 1000 nM

CC(C)S(=O)(=O)c1ccccc1Nc1nc(Nc2nc3c(s2)CCN(CCN2CCOCC2)CC3)ncc1Cl
inhibition of growth at 1 µM [2]: 83.5% | inhibition of growth at 0.2 µM [3]: 19.8%

CC(C)S(=O)(=O)c1ccccc1Nc1nc(Nc2nc(C(=O)N3C[C@H]4CN(C)C[C@H]4C3)cs2)ncc1Cl
inhibition of growth at 1 µM [2]: 61.4% | inhibition of growth at 0.2 µM [3]: -0.1%

CC(C)S(=O)(=O)c1ccccc1Nc1nc(Nc2nc3c(s2)CNCC3)ncc1Cl
IC50 [1]: > 1000 nM

COC(=O)c1csc(Nc2ncc(Cl)c(Nc3ccccc3S(=O)(=O)C(C)C)n2)n1
IC50 [1]: > 1000 nM

CC(C)S(=O)(=O)c1ccccc1Nc1nc(Nc2nc(C(=O)NCCN3CCOCC3)cs2)ncc1Cl
inhibition of growth at 1 µM [2]: 73.6% | inhibition of growth at 0.2 µM [3]: 29.5%

COc1cc(NC(=O)c2csc(Nc3ncc(Cl)c(Nc4ccccc4S(=O)(=O)C(C)C)n3)n2)cc(OC)c1OC
IC50 [1]: > 1000 nM

CC(C)S(=O)(=O)c1ccccc1Nc1nc(Nc2nc(C(=O)N3CC4CCC(C3)O4)cs2)ncc1Cl
inhibition of growth at 1 µM [2]: 63.4% | inhibition of growth at 0.2 µM [3]: 18.4%

CC(C)S(=O)(=O)c1ccccc1Nc1nc(Nc2nc3c(s2)CCN(C(=O)C2CCOCC2)CC3)ncc1Cl
inhibition [4]: 100% | inhibition [5]: 23% | inhibition [6]: 5.6% | inhibition [7]: 69.2% | inhibition [8]: 15.8% | inhibition [9]: 18% | inhibition [10]: 45.6% | inhibition [11]: 0% | inhibition [12]: Dose-dependent effect | inhibition of growth at 1 µM [2]: 84.1% | inhibition [13]: Dose-dependent effect | inhibition [14]: 4.9% | inhibition [15]: Dose-dependent effect | inhibition [16]: 15.8% | inhibition [17]: 77% | inhibition of growth at 0.2 µM [3]: 23.2% | inhibition [18]: 51.3% | IC50 [19]: 24 nM | inhibition [20]: 52.8% | IC50 [1]: 12.4 nM | inhibition [21]: 53.5% | inhibition [22]: 40.6% | inhibition [23]: 33.4% | inhibition [24]: Dose-dependent effect | inhibition [25]: 0%

CC(C)S(=O)(=O)c1ccccc1Nc1nc(Nc2nc(C(=O)N3CC4(CCNCC4)C3)cs2)ncc1Cl
IC50 [1]: > 1000 nM

CNC(=O)c1csc(Nc2ncc(Cl)c(Nc3ccccc3S(=O)(=O)C(C)C)n2)n1
IC50 [1]: > 1000 nM

CCOC(=O)c1csc(Nc2ncc(Cl)c(Nc3ccccc3S(=O)(=O)C(C)C)n2)n1
IC50 [1]: > 1000 nM

CNC(=O)c1ccccc1Nc1nc(Nc2nc3c(s2)CCNCC3)ncc1Cl
inhibition [5]: 63.2% | inhibition [10]: 73.9% | inhibition [26]: 20.5% | inhibition [14]: 96% | inhibition [17]: 81.5% | inhibition [18]: 20.7% | inhibition [20]: 5.7% | IC50 [27]: 20 nM | IC50 [1]: 61.8 nM | inhibition [28]: 96% | inhibition [23]: 60.1% | inhibition [25]: 16.3%

CCOC(=O)N1CCc2nc(Nc3ncc(Cl)c(Nc4ccccc4S(=O)(=O)C(C)C)n3)sc2CC1
inhibition of growth at 1 µM [2]: 16.1% | inhibition of growth at 0.2 µM [3]: 5.5%

CC(C)S(=O)(=O)c1ccccc1Nc1nc(Nc2nc3c(s2)CCN(C)CC3)ncc1Cl
inhibition of growth at 1 µM [2]: 67.7% | inhibition of growth at 0.2 µM [3]: 0.15%

CCCCOC(=O)c1csc(Nc2ncc(Cl)c(Nc3ccccc3S(=O)(=O)C(C)C)n2)n1
IC50 [1]: > 1000 nM

CC(C)S(=O)(=O)c1ccccc1Nc1nc(Nc2nc(C(=O)N3CCOCC3)cs2)ncc1Cl
IC50 [1]: > 1000 nM

CC(C)S(=O)(=O)c1ccccc1Nc1nc(Nc2nc3c(s2)CCN(CC2CCOCC2)CC3)ncc1Cl
inhibition of growth at 1 µM [2]: 59.9% | inhibition of growth at 0.2 µM [3]: -13.7%

CC(C)S(=O)(=O)c1ccccc1Nc1nc(Nc2nc(C(=O)N3CCCCC3)cs2)ncc1Cl
IC50 [1]: > 1000 nM
